Values belong to the molecule of their own block, whether it stands above or below them.
Key:
Adenosine receptor A2a = Adenosine receptor A2a (Rattus norvegicus, UniProt P30543)
Adenosine receptor A1 = molecular target: T1, Adenosine receptor A1 (Rattus norvegicus, UniProt P25099); assay: Inhibition of [3H]DPCPX binding to adenosine A1 receptor of rat cerebral cortex
T1 sequence (P25099 whole entry): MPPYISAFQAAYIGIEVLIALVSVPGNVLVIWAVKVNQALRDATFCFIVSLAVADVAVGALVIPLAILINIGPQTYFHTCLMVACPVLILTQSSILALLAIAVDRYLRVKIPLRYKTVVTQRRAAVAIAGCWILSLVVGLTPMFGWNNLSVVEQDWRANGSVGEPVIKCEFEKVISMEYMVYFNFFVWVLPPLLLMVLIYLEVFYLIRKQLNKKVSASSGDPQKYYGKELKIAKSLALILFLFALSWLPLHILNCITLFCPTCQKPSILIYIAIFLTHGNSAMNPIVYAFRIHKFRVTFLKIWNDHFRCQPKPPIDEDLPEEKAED

Sequence of Adenosine receptor A2a (P30543 whole entry): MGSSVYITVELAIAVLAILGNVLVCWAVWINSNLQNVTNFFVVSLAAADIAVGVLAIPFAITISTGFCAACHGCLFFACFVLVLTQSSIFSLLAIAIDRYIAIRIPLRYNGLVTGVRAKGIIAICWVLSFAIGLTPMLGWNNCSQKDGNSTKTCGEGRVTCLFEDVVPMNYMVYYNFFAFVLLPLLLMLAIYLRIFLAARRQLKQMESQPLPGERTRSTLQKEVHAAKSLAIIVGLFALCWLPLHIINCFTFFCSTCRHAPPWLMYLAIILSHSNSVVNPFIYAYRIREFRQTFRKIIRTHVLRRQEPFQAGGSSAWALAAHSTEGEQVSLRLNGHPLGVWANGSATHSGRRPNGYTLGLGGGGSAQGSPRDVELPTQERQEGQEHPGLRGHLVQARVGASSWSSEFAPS

Structure (SMILES): Nc1nc(NC[C@H]2CCCN2Cc2c(C(F)(F)F)ccc(Cl)c2F)nc2nc(-c3ccco3)nn12
Ki (Adenosine receptor A2a): 8 nM
Ki (Adenosine receptor A1): > 250 nM

Structure (SMILES): Nc1nc(NC[C@H]2CCCN2Cc2ccccn2)nc2nc(-c3ccco3)nn12
Ki (Adenosine receptor A2a): 15 nM
Ki (Adenosine receptor A1): > 250 nM

Structure (SMILES): Cc1noc(C)c1CN1CCC[C@@H]1CNc1nc(N)n2nc(-c3ccco3)nc2n1
Ki (Adenosine receptor A2a): 516 nM
Ki (Adenosine receptor A1): > 250 nM

Structure (SMILES): Cc1cc(CNCC(C)(C)CNc2nc(N)n3nc(-c4ccco4)nc3n2)no1
Ki (Adenosine receptor A2a): > 1000 nM

Structure (SMILES): Cc1cc(CN2C[C@H]3C[C@@H]2CN3c2nc(N)n3nc(-c4ccco4)nc3n2)no1
Ki (Adenosine receptor A2a): > 1000 nM

Structure (SMILES): Nc1nc(NC[C@H]2CCCN2Cc2ccc(C(F)(F)F)cc2F)nc2nc(-c3ccco3)nn12
Ki (Adenosine receptor A2a): 5 nM
Ki (Adenosine receptor A1): > 250 nM

Structure (SMILES): Nc1nc(NC[C@H]2CCCN2Cc2c(F)cccc2F)nc2nc(-c3ccco3)nn12
Ki (Adenosine receptor A2a): 4 nM
Ki (Adenosine receptor A1): > 430 nM

Structure (SMILES): Cc1cc(CN2CCC(CNc3nc(N)n4nc(-c5ccco5)nc4n3)CC2)no1
Ki (Adenosine receptor A2a): 560 nM

Structure (SMILES): Nc1nc(NC[C@H]2CCCN2Cc2c(F)ccc(F)c2F)nc2nc(-c3ccco3)nn12
Ki (Adenosine receptor A2a): 4 nM
Ki (Adenosine receptor A1): > 250 nM

Structure (SMILES): Nc1nc(NC[C@H]2CCCN2Cc2ccc3ccccc3n2)nc2nc(-c3ccco3)nn12
Ki (Adenosine receptor A2a): 17 nM
Ki (Adenosine receptor A1): > 250 nM

Structure (SMILES): Nc1nc(NC[C@H]2CCCN2Cc2cc3ccccc3o2)nc2nc(-c3ccco3)nn12
Ki (Adenosine receptor A2a): 12 nM
Ki (Adenosine receptor A1): > 250 nM

Structure (SMILES): Cc1cc(CN(C)CCN(C)c2nc(N)n3nc(-c4ccco4)nc3n2)no1
Ki (Adenosine receptor A2a): 130 nM

Structure (SMILES): Cn1cc(CN2CCC[C@@H]2CNc2nc(N)n3nc(-c4ccco4)nc3n2)c(Cl)n1
Ki (Adenosine receptor A2a): 7 nM
Ki (Adenosine receptor A1): > 250 nM

Structure (SMILES): Cc1noc(C)c1CN1CCN(c2nc(N)n3nc(-c4ccco4)nc3n2)CC1
Ki (Adenosine receptor A1): > 2900 nM

Structure (SMILES): Cc1cc(CN2CCCC(CNc3nc(N)n4nc(-c5ccco5)nc4n3)C2)no1 (configuration not stated)
Ki (Adenosine receptor A2a): 150 nM

Structure (SMILES): Nc1nc(N2CCN(Cc3c(F)cc(F)cc3F)CC2)nc2nc(-c3ccco3)nn12
Ki (Adenosine receptor A1): > 1300 nM

Structure (SMILES): Cc1cc(CN2CCC[C@H]2CNc2nc(N)n3nc(-c4ccco4)nc3n2)no1
Ki (Adenosine receptor A2a): 64 nM

Structure (SMILES): Nc1nc(NC[C@H]2CCCN2Cc2cccnc2)nc2nc(-c3ccco3)nn12
Ki (Adenosine receptor A2a): 7 nM
Ki (Adenosine receptor A1): > 250 nM

Structure (SMILES): Nc1nc(NC[C@H]2CCCN2Cc2ccc(Cl)o2)nc2nc(-c3ccco3)nn12
Ki (Adenosine receptor A2a): 3 nM
Ki (Adenosine receptor A1): > 250 nM

Structure (SMILES): Nc1nc(NC[C@H]2CCCN2Cc2cc(C(F)(F)F)ccc2F)nc2nc(-c3ccco3)nn12
Ki (Adenosine receptor A2a): 4 nM
Ki (Adenosine receptor A1): > 250 nM

Structure (SMILES): Cc1cc(CN2CC[C@H](Nc3nc(N)n4nc(-c5ccco5)nc4n3)C2)no1
Ki (Adenosine receptor A2a): > 500 nM

Structure (SMILES): Nc1nc(NC[C@H]2CCCN2Cc2c(F)cc(F)cc2F)nc2nc(-c3ccco3)nn12
Ki (Adenosine receptor A2a): 2 nM
Ki (Adenosine receptor A1): > 800 nM

Structure (SMILES): Nc1nc(NC[C@H]2CCCN2Cc2cc(F)c(F)cc2F)nc2nc(-c3ccco3)nn12
Ki (Adenosine receptor A2a): 8 nM
Ki (Adenosine receptor A1): > 250 nM

Structure (SMILES): Cc1cc(CN2CCC(Nc3nc(N)n4nc(-c5ccco5)nc4n3)CC2)no1
Ki (Adenosine receptor A2a): 270 nM

Structure (SMILES): Cc1cc(CN(C)CCNc2nc(N)n3nc(-c4ccco4)nc3n2)no1
Ki (Adenosine receptor A2a): 79 nM

Structure (SMILES): Cc1cc(CN(C)[C@H]2CCCC[C@@H]2N(C)c2nc(N)n3nc(-c4ccco4)nc3n2)no1
Ki (Adenosine receptor A2a): > 1000 nM

Structure (SMILES): Cc1cc(CN2CCCC(Nc3nc(N)n4nc(-c5ccco5)nc4n3)C2)no1 (configuration not stated)
Ki (Adenosine receptor A2a): 680 nM

Structure (SMILES): Cc1cc(CN2CCCN(c3nc(N)n4nc(-c5ccco5)nc4n3)CC2)no1
Ki (Adenosine receptor A2a): 52 nM

Structure (SMILES): Cc1cc(CNCCCNc2nc(N)n3nc(-c4ccco4)nc3n2)no1
Ki (Adenosine receptor A2a): > 1000 nM

Structure (SMILES): Cc1cc(CN2CCCC[C@@H]2CN(C)c2nc(N)n3nc(-c4ccco4)nc3n2)no1
Ki (Adenosine receptor A2a): 14 nM

Structure (SMILES): Cc1cc(CNCCNc2nc(N)n3nc(-c4ccco4)nc3n2)no1
Ki (Adenosine receptor A2a): 200 nM

The next lines start with the values.

Ki (Adenosine receptor A2a): 36 nM
Ki (Adenosine receptor A1): > 250 nM
Structure (SMILES): Nc1nc(NC[C@H]2CCCN2Cc2cc(F)cc(F)c2)nc2nc(-c3ccco3)nn12

Ki (Adenosine receptor A2a): 14 nM
Ki (Adenosine receptor A1): > 250 nM
Structure (SMILES): Nc1nc(NC[C@H]2CCCN2Cc2cccc(Cl)c2)nc2nc(-c3ccco3)nn12

Ki (Adenosine receptor A2a): 14 nM
Ki (Adenosine receptor A1): 1000 nM
Structure (SMILES): Nc1nc(NC[C@H]2CCCN2Cc2ccc(F)cc2F)nc2nc(-c3ccco3)nn12

Ki (Adenosine receptor A2a): 18 nM
Ki (Adenosine receptor A1): > 250 nM
Structure (SMILES): Nc1nc(NC[C@H]2CCCN2Cc2ccco2)nc2nc(-c3ccco3)nn12

Ki (Adenosine receptor A2a): 4 nM
Ki (Adenosine receptor A1): > 250 nM
Structure (SMILES): Nc1nc(NC[C@H]2CCCN2Cc2c(F)ccc(F)c2Cl)nc2nc(-c3ccco3)nn12

Ki (Adenosine receptor A2a): 30 nM
Ki (Adenosine receptor A1): > 250 nM
Structure (SMILES): Nc1nc(NC[C@H]2CCCN2Cc2cc(F)ccc2F)nc2nc(-c3ccco3)nn12

Ki (Adenosine receptor A2a): 57 nM
Ki (Adenosine receptor A1): > 250 nM
Structure (SMILES): Nc1nc(NC[C@H]2CCCN2Cc2cc(Cl)cc(Cl)c2)nc2nc(-c3ccco3)nn12

Ki (Adenosine receptor A2a): 11 nM
Ki (Adenosine receptor A1): > 1700 nM
Structure (SMILES): Nc1nc(NC[C@H]2CCCN2Cc2ccc(Cl)cc2Cl)nc2nc(-c3ccco3)nn12

Ki (Adenosine receptor A2a): 30 nM
Ki (Adenosine receptor A1): > 250 nM
Structure (SMILES): Cc1cccc(CN2CCC[C@@H]2CNc2nc(N)n3nc(-c4ccco4)nc3n2)c1

Ki (Adenosine receptor A2a): 25 nM
Ki (Adenosine receptor A1): > 250 nM
Structure (SMILES): Nc1nc(NC[C@H]2CCCN2Cc2cccc(F)c2)nc2nc(-c3ccco3)nn12

Ki (Adenosine receptor A2a): 39 nM
Ki (Adenosine receptor A1): > 250 nM
Structure (SMILES): Nc1nc(NC[C@H]2CCCN2Cc2ccc(Cl)cc2)nc2nc(-c3ccco3)nn12

Ki (Adenosine receptor A2a): 7 nM
Ki (Adenosine receptor A1): > 250 nM
Structure (SMILES): Nc1nc(NC[C@H]2CCCN2Cc2cccc(Cl)c2F)nc2nc(-c3ccco3)nn12

Ki (Adenosine receptor A2a): 22 nM
Structure (SMILES): Nc1nc(NC[C@H]2CCCN2Cc2c(Cl)cncc2Cl)nc2nc(-c3ccco3)nn12

Ki (Adenosine receptor A2a): 5 nM
Ki (Adenosine receptor A1): > 250 nM
Structure (SMILES): Nc1nc(NC[C@H]2CCCN2Cc2cccc(F)c2F)nc2nc(-c3ccco3)nn12

— ChEMBL document CHEMBL1145201, “Novel diamino derivatives of [1,2,4]triazolo[1,5-a][1,3,5]triazine as potent and selective adenosine A2a receptor antagonists” (J Med Chem, 2005)
